# Experimental data: patent US20050143336A1 (priority 2003, published 2005)
# Entries after “also recorded” stand apart in the source; their conditions may differ.
# Key:
# [1] = test system: p38MAPK, JNK, p44/42 MAPK, ATF2, cJun, STAT3, COX-2 in RAW 264.7 cells; assay: Signaling molecules in RAW 264.7 macrophage cells transfected with FUS1-nanoparticle (western blot); assay type: cell-based, Mouse
# Protocol: In vitro experiments. To determine the effect of nanoparticle-FUS1 complex on the activation of signaling molecules associated with inflammation, RAW macrophage cells were seeded in six-well plates (1×10^6 cells/well) and incubated overnight at 37° C. and 5% CO2. The following day, tissue culture medium was replaced with fresh 0.2% medium and incubated overnight at 37° C. and 5% CO2. […] Two-three hours after treatment, cells were transfected with FUS1-nanoparticle (2.5 μg DNA) in 0.2% serum medium. Cells were harvested at different time-points (2 h, 4 h, 15 h) after transfection, washed, and cell lysates prepared as previously described (Ramesh et al., 2001a). Untransfected cells treated with PBS served as control in these experiments. Cell lysates were subjected to western blotting analysis and probed with various antibodies as previously described (Ito et al., 2003). In all the experiments, β-actin was detected using anti-β-actin antibody (Sigma Chemicals, St. Louis, Mo.) as a measure of internal loading control.
# [2] = test system: proinflammatory cytokines (TNF, IL-1, IL-6, IFN-γ); assay type: in vivo, C3H mice
# Protocol: In vivo treatment of immunocompetent animals by intravenous injection of DOTAP:Cholesterol-FUS1 complex. Female C3H mice were divided into 2 groups (n=15/group). […] Complexes were injected intravenously via the tail vein using a total volume of 200 μl. […] Blood from animals in all groups were collected at 2, 4, 6, and 15 h after injection of liposome-DNA complex, and analyzed for proinflammatory cytokines (TNF, IL-1, IL-6, IFN-γ) by ELISA (R&D Systems).
# luciferase expression = assay: Luciferase transgene expression in cells transfected with luc-nanoparticles; assay type: cell-based, Human; details: naproxen prior to luc-nanoparticles; 2 h, 4 h, 15 h
# Protocol: To determine the effect of inhibitors on transgene expression, cells were transfected with a marker gene, luciferase (luc), complexed with DOTAP:Chol. nanoparticles (luc-nanopartilces). All other experimental conditions were the same as described above. Luciferase expression was determined using the luciferase assay kit (Promega, Madison, Wis.) as previously described (Ramesh et al., 2001b). Luciferase expression was expressed as relative light units per mg of protein (RLU/mg). Assays were performed in triplicates. Experiments were performed two times and the results represented as the average of two separate experiments.
# [3] = test system: p38, JNK, ERK, pATF2, pcJun, STAT3, COX-2; assay: Western blot of signaling molecules in lung, liver and spleen after FUS1-nanoparticle with or without naproxen; assay type: in vivo, C3H mice
# Protocol: Western blot analysis for the Signaling molecules. At the time of western blot analysis, organs were slowly thawed on ice. […] Whole Cell lysates were collected in an Eppendorf tube and sonicated for 30 seconds and heated in a water bath at 95° C. for 5 mins and then centrifuged at 13000 rpm for 10 min at 4° C. The supernatants were mixed with 5% 2-mercaptoethanol and stored at −80° C. Protein concentrations was determined by BCA protein assay. Aliquots of cell extracts containing 50 μg of total protein were resolved in 10% SDS-PAGE and transferred from gel to nitrocellulose membrane (Hybond-ECL; Amersham Pharmacia Biotech, UK) and then blocked for 1 h at room temperature (5% nonfat milk powder and 0.1% Tween 20 in TBS or PBS). Then the membranes were incubated with the primary antibodies, phosphospcific p38 (1:1000), phosphospecific pJNK (1:1000), phosphospecific p44/42 (1:1000), phospho ATF2 (1:1000), phospho cJun (1:1000), phospho STAT3 (1:1000) and COX-2 (1:1000). The membranes were then incubated with HRP-conjugated rabbit IgG Ab (Amersham) and the bound antibodies were visualized by enhanced chemiluminescence (Amersham; Piscataway, N.J.). The expression of α-actin was used as the loading control.
# [4] = 15 mg/kg orally
# Protocol: At indicated times after injection, blood and organ was collected at different time points. TNF-α, IL-6, IL-1a and IFN-γ levels in serum (C) and TNF-α, IL-6 (D) in organs were determined using specific immunoassay kit. Data represent means±SD.
# Animals were euthanized at 2, 4, 6, and 15 hours after treatment, and blood was collected. Blood samples were stored at −80° C. until all samples were collected. They were then submitted to the Drug Analysis Core Facility at M.D. Anderson Cancer Center.
# [5] = test system: p38MAPK, pJNK, p44/42MAPK, pATF2, pc-JUN, COX-2 in lung tissues; assay: Inflammation-associated signaling molecules in lung tissues after FUS1-nanoparticles (western blot); assay type: in vivo, C3H mice; details: naproxen prior to FUS1-nanoparticles
# [6] = test system: FUS1 protein expression in the lungs; details: naproxen 15 mg/kg orally 2 hour prior to i.v. DOTAP:Chol-FUS1 complex vs complex alone
# Protocol: In vivo treatment of immunocompetent animals by intravenous injection of DOTAP:Cholesterol-FUS1 complex. Female C3H mice were divided into 3 groups (n=12/group). […] Lung tissues were later homogenized, and total protein lysates prepared. Protein concentration in the lysate were determined by the BCA method and analyzed for FUS1 expression by western blot analysis. FUS1 protein was detected using a anti-FUS1 antibody. Untreated animals served as controls.
# [7] = test system: serum TNF-α, IL-6, Il-1α and IFN-γ; assay: Serum cytokine profile after FUS1-nanoparticle with or without naproxen (ELISA); assay type: in vivo, C3H mice; details: naproxen 15 mg/kg orally pretreatment
# Protocol: Cytokine profiles, Organ toxicity and Signalling molecules in C3H mice. To determine the cytokine profile, organ toxicity, signaling molecules responsible for inflammation, experiments were performed using immunocompetent female C3H mice. […] The amount of FUS1 plasmid injected was 100 μg. Serum and organ cytokine levels were determined by ELISA for murine TNF-α and murine Il-6. At indicated times after injection, blood was obtained via aspiration after right heart puncture. The blood was allowed to stand for 4 hours at 4° C. and then was centrifuged twice at 15,000 g for 10 minutes at 4° C. The supernatants (serum) were kept at −80° C. until used. Cytokine concentrations were quantified using specific ELISA kits (R&D systems) according to manufacturer's instructions. Organs were collected at 2, 4, and 15 h and were snap-frozen in liquid nitrogen and stored at […] until time of ELISA and Western blot analysis. At the time of ELISA, organs were slowly thawed on ice. The lung, liver and spleen was homogenized in 750 μl PBS containing a cocktail of protease inhibitors using a tissue homogenizer. The cytoplasmic fraction was isolated as the supernatant fraction following centrifugation at 15,000 g for 20 min at 4° C. The supernatant was used for the determination of TNF-α and IL-6 were quantitated by ELISA kits purchased from R&D Sytems and Biosource.fraction.
smiles,measurement,setting,value
"COc1ccc2cc([C@H](C)C(=O)O)ccc2c1 [Naproxen, naproxen]","p38MAPK, pJNK, pATF-2 and pcjun","[1]; RAW 264.7, 0.5 mM naproxen pretreatment, 2 and 4 h",significantly inhibited
same,phosphorylation of STAT 3,"[1]; RAW 264.7, 0.5 mM naproxen, 4 and 15 h",inhibited
same,expression of COX-2,"[1]; RAW 264.7, 0.5 mM naproxen, 4 h",inhibited
same,reduction in all of the cytokine levels,"[2]; naproxen 15 mg/kg 2 hour before DOTAP:Chol-FUS1 complex (100 μg DNA) i.v., serum",50%
same,"proinflammatory cytokine production, effect of naproxen",[2]; naproxen 15 mg/kg before complex,significant suppression of proinflammatory cytokine production
same,"luciferase activity (RLU/mg protein), naproxen treated vs untreated",luciferase expression,greatly increased; also recorded: slight increase in luciferase activity
same,"phosphorylation of JNK, ATF-2, cJun, STAT3 ser727 and Tyr 705 in liver and spleen",[3]; naproxen 15 mg/kg,inhibited
same,p38 phosphorylation in lung,"[3]; naproxen 15 mg/kg 2 h before FUS1-nanoparticle, all time points",complete inhibition
same,JNK and ERK phosphorylation in lung,"[3]; naproxen 15 mg/kg, 2 and 4 h",partial inhibition
same,COX-2 induced by FUS1-nanoparticle,"[3]; naproxen 15 mg/kg, 2 h",inhibition
same,"phosphorylation of ATF-2, cJUN and STAT3 (Ser 727, Tyr705) in lung","[3]; naproxen 15 mg/kg, 4 h and 15 h",inhibited
same,maximum levels of naproxen in the blood,[4],3.5 μg/200 μl of blood
same,time by which naproxen reached baseline levels,[4],≤ 15 h
same,activation of signaling molecules in lung,[5],markedly suppressed
same,FUS1 protein expression in the lungs,[6],No significant differences
same,"serum TNF-α, IL-6, Il-1α and IFN-γ levels induced by FUS1-nanoparticle",[7],significantly inhibited
